How the values were obtained:
Format in all cases: in vivo, human
[1] = tested on: non-cirrhotic subjects with NASH; assay: Phase 2 randomized placebo-controlled trial of Compound 1 in NASH: imaging, liver biochemistry, serum fibrosis markers, tolerability; conditions: for Liver stiffness by FibroScan, median relative change from baseline: W12, n = 40; for Hyaluronic acid, median relative change from baseline / PIII-NP, median relative change from baseline / TIMP-1, median relative change from baseline: W12, serum
Method: Methods: In this double-blind, placebo-controlled trial, 126 non-cirrhotic subjects with NASH diagnosed noninvasively by MRI proton density fat fraction (PDFF) ≥8% and liver stiffness ≥2.5 kPa by MR elastography (MRE), or historical liver biopsy consistent with NASH and stage 1 to 3 fibrosis, were randomized 2:2:1 to receive Compound 1 20 mg, Compound 1 5 mg, or placebo orally QD for 12 weeks ([…]). Centrally-read MRI-PDFF and MRE, and FibroScan and serum markers of fibrosis were measured at baseline and […]. In some subjects, liver stiffness and hepatic fat content by Controlled Attenuation Parameter (CAP) were assessed using transient elastography (FibroScan®; Echosens, Paris, France) at baseline (i.e. week 0) and week 12.

[2] = tested on: non-cirrhotic subjects with NASH; assay: Phase 2 trial of Compound 1 in NASH: standard lipid tests and NMR LipoProfile lipoproteins in fasting serum; conditions: for HDL-P (total HDL particles), median / HDL-C, median / VLDL-P (total VLDL particles), median / LDL-C, median / TG, median / TC, median / LDL-P (total LDL particles), median: Compound 1 20 mg daily; for HDL-P (total HDL particles), median: BL 30; for HDL-C, median: BL 42; for VLDL-P (total VLDL particles), median: BL 53; for LDL-C, median: BL 99; for TG, median: BL 160; for TC, median: BL 179; for LDL-P (total LDL particles), median: BL 1397
Method: Methods: In this double-blind, placebo-controlled trial, 126 non-cirrhotic subjects with NASH diagnosed noninvasively by MRI proton density fat fraction (PDFF) ≥8% and liver stiffness ≥2.5 kPa by MR elastography (MRE), or historical liver biopsy consistent with NASH and stage 1 to 3 fibrosis, were randomized 2:2:1 to receive Compound 1 20 mg, Compound 1 5 mg, or placebo orally QD for 12 weeks (W12). Centrally-read MRI-PDFF and MRE, and FibroScan and serum markers of fibrosis were measured at baseline and W12. In some subjects, liver stiffness and hepatic fat content by Controlled Attenuation Parameter (CAP) were assessed using transient elastography (FibroScan®; Echosens, Paris, France) at baseline (i.e. week 0) and week 12.
In addition to standard lipid tests (serum triglycerides (“TG”), total cholesterol (“TC”), low density lipoprotein cholesterol (“LDL-C”), and high density lipoprotein cholesterol (“HDL-C”), lipoproteins also were measured by nuclear magnetic resonance spectroscopy (NMR LipoProfile®, LabCorp) in fasting serum samples at baseline (“BL”), week 1 (W1), week 4 (W4), and W12. Changes from BL in Compound 1-treated subjects were evaluated using Wilcoxon sign-rank tests and comparisons vs placebo using Wilcoxon rank-sum tests (all with Bonferroni adjustment).

[3] = tested on: subjects with compensated cirrhosis due to NASH; assay: Proof-of-concept study of Compound 1 in compensated cirrhosis due to NASH
Method: Methods: In a proof-of-concept study, 10 subjects with suspected compensated cirrhosis (Child-Turcotte-Pugh [CTP]-A) due to NASH (defined by any one of biopsy, liver stiffness by magnetic resonance elastography [MRE]≥4.67 kPa or transient elastography ≥14.0 kPa, or Fibrotest ≥0.75) received Compound 1 20 mg orally once daily for 12 weeks. Centrally-read magnetic resonance imaging-proton density fat fraction (MRI-PDFF) and MRE, and serum markers of fibrosis were measured at baseline (BL), Week 4 (W4), and Week 12 ([…]). For DNL determination, heavy water (^2H2O, 35 mL) was administered three times daily for one-week cycles prior to baseline, W4, and […]. Deuterium incorporation into palmitate was measured in fasting plasma samples by GC/MS, and mass isotopomer distribution analysis was used to calculate hepatic DNL and its inhibition by Compound 1.

[4] = Compound 1 5 mg orally QD, W12, n = 47
[5] = Compound 1 20 mg orally QD, W12, n = 46
[6] = Compound 1 20 mg, 5 mg, placebo, W12

SMILES: COc1ccccc1[C@H](Cn1c(=O)n(C(C)(C)C(=O)O)c(=O)c2c(C)c(-c3ncco3)sc21)OC1CCOCC1 [Compound 1, (R)-2-(1-(2-(2-methoxyphenyl)-2-((tetrahydro-2H-pyran-4-yl)oxy)ethyl)-5-methyl-6-(oxazol-2-yl)-2,4-dioxo-1,2-dihydrothieno[2,3-d]pyrimidin-3(4H)-yl)-2-methylpropanoic acid]
- ALT, median relative change from baseline ([1]; Compound 1 5 mg orally QD, W12): −9.8%
- ≥30% reduction in MRI-PDFF, % of subjects ([1]; Compound 1 5 mg orally QD, W12 (11/47)): 23%
- ≥15% reduction in MRE-stiffness, % of subjects ([1]; Compound 1 5 mg orally QD, W12 (19/47)): 40%
- Liver stiffness by FibroScan, median relative change from baseline ([1]; Compound 1 5 mg orally QD): −8.4%
- MRE-stiffness, median relative change from baseline [1, 4]: −9.6%
- MRI-PDFF, median relative change from baseline [1, 4]: −13.0%
- Hyaluronic acid, median relative change from baseline ([1]; Compound 1 5 mg orally QD): −0.7%
- PIII-NP, median relative change from baseline ([1]; Compound 1 5 mg orally QD): −7.0%
- TIMP-1, median relative change from baseline ([1]; Compound 1 5 mg orally QD): −2.9%
- MRI-PDFF, differences from placebo ([1]; Compound 1 5 mg, W12): not statistically significant
- Median alkaline phosphatase, change ([1]; Compound 1 5 mg, W12): unchanged
- Hepatic steatosis by CAP (Controlled Attenuation Parameter) ([1]; Compound 1 20 mg and 5 mg, week 12, differences not statistically significant): Dose-dependent reductions
- Tolerability ([1]; Compound 1 20 mg or 5 mg QD, 12 weeks): generally well-tolerated
- ALT, median relative change from baseline ([1]; Compound 1 20 mg orally QD, W12): −20.5%
- ≥15% reduction in MRE-stiffness, % of subjects ([1]; Compound 1 20 mg orally QD, W12 (15/46)): 33%
- ≥30% reduction in MRI-PDFF, % of subjects ([1]; Compound 1 20 mg orally QD, W12 (22/46)): 48%
- Liver stiffness by FibroScan, median relative change from baseline ([1]; Compound 1 20 mg orally QD): −11.1%
- MRE-stiffness, median relative change from baseline [1, 5]: −5.5%
- MRI-PDFF, median relative change from baseline [1, 5]: −28.9%
- Hyaluronic acid, median relative change from baseline ([1]; Compound 1 20 mg orally QD): −6.9%
- PIII-NP, median relative change from baseline ([1]; Compound 1 20 mg orally QD): −13.9%
- TIMP-1, median relative change from baseline ([1]; Compound 1 20 mg orally QD): −7.9%
- Liver stiffness by FibroScan, M probe, change from baseline to week 12 between treatment groups ([1]; Compound 1 20 mg, 5 mg, placebo): no differences
- Changes in liver stiffness by MRE [1, 6]: did not differ between groups
- Changes in other liver biochemistry tests and the composite ELF score among the treatment groups [1, 6]: not significantly different
- MRI-PDFF compared with placebo ([1]; Compound 1 20 mg, W12): statistically and clinically significant decrease
- Serum levels of TIMP-1 ([1]; Compound 1 20 mg, W12, p=0.022 vs placebo): significant reductions
- Median alkaline phosphatase, increase ([1]; Compound 1 20 mg, W12, p≤0.001 vs placebo): 9%
- Asymptomatic Grade 3 or 4 TG elevations (>500 mg/dL), number of subjects ([2]; Compound 1 5 mg): 9 subjects
- Median relative change in triglycerides (TG) ([2]; Compound 1 5 mg, W12): +13%
- Asymptomatic Grade 3 or 4 TG elevations (>500 mg/dL), number of subjects ([2]; Compound 1 20 mg): 7 subjects
- HDL-P (total HDL particles), median ([2]; W1): 30 µmol/L
- HDL-C, median ([2]; W1): 39 mg/dL
- VLDL-P (total VLDL particles), median ([2]; W1): 72 nmol/L
- LDL-C, median ([2]; W1): 102 mg/dL
- TG, median ([2]; W1): 191 mg/dL
- TC, median ([2]; W1): 192 mg/dL
- LDL-P (total LDL particles), median ([2]; W1): 1260 nM
- HDL-P (total HDL particles), median ([2]; W4): 30 µmol/L
- HDL-C, median ([2]; W4): 39 mg/dL
- VLDL-P (total VLDL particles), median ([2]; W4): 52 nmol/L
- LDL-C, median ([2]; W4): 96 mg/dL
- TG, median ([2]; W4): 188 mg/dL
- TC, median ([2]; W4): 184 mg/dL
- LDL-P (total LDL particles), median ([2]; W4): 1360 nM
- HDL-P (total HDL particles), median ([2]; W12): 30 µmol/L
- HDL-C, median ([2]; W12): 42 mg/dL
- VLDL-P (total VLDL particles), median ([2]; W12): 52 nmol/L
- LDL-C, median ([2]; W12): 99 mg/dL
- TG, median ([2]; W12): 177 mg/dL
- TC, median ([2]; W12): 182 mg/dL
- LDL-P (total LDL particles), median ([2]; W12): 1230 nM
- Changes in glucose, insulin, or HbA1c compared to placebo ([2]; Compound 1 20 mg or 5 mg): no significant changes
- Median relative change in triglycerides (TG) ([2]; Compound 1 20 mg, W12): +11%
- Changes from baseline in HDL-C, TC, and LDL-C ([2]; Compound 1-treated subjects, W12): not significant
- Median TG increase ([2]; Compound 1-treated subjects, W12, IQR (−6, 72), p=0.14 vs placebo): 14 mg/dL
- Changes in total HDL or total LDL particles ([2]; subjects on Compound 1): No significant changes
- Time course of TG elevations ([2]; subjects on Compound 1): peaked at W1 and declined thereafter
- Asymptomatic Grade 3 hypertriglyceridemia ([3]; Compound 1 20 mg once daily, 10 subjects, responded to fibrate therapy): One subject
- Changes in MRE-stiffness or serum fibrosis markers ([3]; Compound 1 20 mg once daily, 12 weeks): No significant changes
- Tolerability ([3]; Compound 1 20 mg once daily, 12 weeks, no premature discontinuation): well-tolerated
- Other lipid parameters ([3]; Compound 1 20 mg once daily, BL to W12): unchanged
- ≥30% relative decline in PDFF, % of subjects ([3]; Compound 1 20 mg once daily, W4, 5 of 10 subjects): 50%
- ≥30% relative decline in PDFF, % of subjects ([3]; Compound 1 20 mg once daily, W12, 7 of 10 subjects): 70%
- Fasting triglycerides, median ([3]; Compound 1 20 mg once daily, W12, IQR (142, 248), BL 147 (105, 231), P=0.008): 159 mg/dL
- Hepatic PDFF (MRI-PDFF), median ([3]; Compound 1 20 mg orally once daily, W12, BL 9.2, P=0.004): 4.6%
- Serum ALT, median ([3]; Compound 1 20 mg orally once daily, W12, BL 46, P=0.008): 32 U/L

From US11963961B2, “Combination therapy comprising an ACC inhibitor” (Gilead Sciences, Inc., priority 2017, dated 2024)
